Among the data in the NIST ThermoML archive (doi:10.1016/j.fluid.2014.06.023) are mass density and refractive index values, retold here.

± gives the expanded uncertainty stated by the source.

For data set [1] the following is noted: 293.15 K, 101.33 kPa, Pycnometric method.
A short description of data set [2]: refractive index (Na D-line) (dimensionless). The following applies: 293.15 K; 101.33 kPa; Crystal; Standard Abbe refractometry.

Usually mass density stands for the mass of a sample divided by its volume. A word on the refractive index: it is a measure of how strongly the sample bends light. As to `Cl.N` [ammonium chloride (NH4Cl)], in data set [1] (Crystal), the mass density was 1527 ± 12 kg/m3. The refractive index in data set [2] worked out at 1.638 ± 0.0008.

`CCCCO` [butan-1-ol]: the mass density in data set [1] (Liquid) was 810 ± 12 kg/m3.
